Experimental data taken from patent US10280150B2 (FORMA TM2, Inc., priority 2014, dated 2019).
Like-named read-outs stand apart in the source and are kept apart here.

Legend:
[1] = tested on: HCT116 isogenic IDH1-R132H mutant cells; test: Cellular 2-HG assay using HCT116 mutant IDH1 cells (R132H), RapidFire mass spectrometry; assay type: cell-based; settings: Homo sapiens, read-out: HCT116 IDH1 R132H IC50 (Range)
Procedure: (§1) Example 106—Cellular 2-HG assay using HCT116 mutant IDH1 cells
(§2) HCT116 isogenic IDH1-R132H and IDH1-R132C mutant cells were cultured in growth media (McCoy's 5 A, 10% fetal bovine serum, 1× antibiotic-antimycotic solution and 0.3 mg/mL G418) in 5% CO2 in an incubator at 37° C. To prepare the assay, cells were trypsinized and resuspended in assay media (McCoy's 5 A with no L-glutamine, 10% fetal bovine serum, 1× antibiotic-antimycotic solution and 0.3 mg/mL G418). An aliquot of 10,000 cells/100 μL was transferred to each well of a clear 96-well tissue culture plate. The cells were incubated in 5% CO2 at 37° C. in an incubator overnight to allow for proper cell attachment. An aliquot of 50 μL of compound containing assay media were then added to each well and the assay plate was kept in 5% CO2 at 37° C. in an incubator for 24 hours. The media was then removed from each well and 150 μL of a methanol/water mixture (80/20 v/v) was added to each well. The plates were kept at −80° C. freezer overnight to allow for complete cell lysis. An aliquot of 125 μL of extracted supernatant was analyzed by RapidFire high-throughout-mass spectrometry (Agilent) to determine the cellular 2-HG level. The IC50 of a given compound was calculated by fitting the dose response curve of cellular 2-HG inhibition at a given concentration with the four parameter logistic equation.

[2] = target: IDH1-R132C recombinant protein (Homo sapiens (Human), UniProt O75874, R132C); test: IDH1-R132C enzymatic assay (inhibition of NADPH consumption, diaphorase/resazurin readout); assay type: biochemical; settings: read-out: Enzyme IDH1 R132C IC50 (Range)
Procedure: Assays were performed in a 384-well black plate. An aliquot of 250 nL of compound was incubated with 10 μL of 30 nM IDH1-R132H or 10 nM IDH1-R132C recombinant protein in assay buffer (50 mM Tris pH=7.5, 150 mM NaCl, 5 mM MgCl2, 0.1% (w/v) Bovine Serum Albumin, and 0.01% Triton X-100) in each well at 25° C. for 15 minutes. After the plate was centrifuged briefly, an aliquot of 10 μL of 2 mM α-ketoglutarate and 20 μM NADPH solution prepared in assay buffer was then added to each well and the reaction was maintained at 25° C. for 45 minutes. An aliquot of 10 μL of diaphorase solution (0.15 U/mL diaphorase and 30 µM Resazurin in assay buffer) was added to each well. The plate was maintained at 25° C. for 15 minutes and then read on a plate reader with excitation and emission wavelengths at 535 nm and 590 nm, respectively. The IC50 of a given compound was calculated by fitting the dose response curve of inhibition of NADPH consumption at a given concentration with the four parameter logistic equation.

[3] = target: IDH1-R132H recombinant protein (Homo sapiens (Human), UniProt O75874, R132H); test: IDH1-R132H enzymatic assay (inhibition of NADPH consumption, diaphorase/resazurin readout); assay type: biochemical; settings: read-out: Enzyme IDH1 R132H IC50 (Range)
Procedure, shortened: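 Compound was preincubated 15 min at 25 °C with 30 nM IDH1-R132H or 10 nM IDH1-R132C in Tris pH 7.5 buffer with MgCl2, BSA and Triton X-100. Reaction with 2 mM α-ketoglutarate and 20 μM NADPH (solution concentrations) ran 45 min at 25 °C. Remaining NADPH was detected via diaphorase/resazurin fluorescence (ex 535/em 590 nm), and IC50 came from four-parameter fits.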

[4] = tested on: HCT116 isogenic IDH1-R132C mutant cells; test: Cellular 2-HG assay using HCT116 mutant IDH1 cells (R132C), RapidFire mass spectrometry; assay type: cell-based; settings: Homo sapiens, read-out: HCT116 IDH1 R132C IC50 (Range)
Procedure: as §1, §2

[5] = HCT-116, cellular 2-HG level, HCT116 IDH1-R132H cells, 24 hours
[6] = HCT-116, cellular 2-HG level, HCT116 IDH1-R132C cells, 24 hours

Chain of IDH1-R132C recombinant protein (O75874 whole entry R132C): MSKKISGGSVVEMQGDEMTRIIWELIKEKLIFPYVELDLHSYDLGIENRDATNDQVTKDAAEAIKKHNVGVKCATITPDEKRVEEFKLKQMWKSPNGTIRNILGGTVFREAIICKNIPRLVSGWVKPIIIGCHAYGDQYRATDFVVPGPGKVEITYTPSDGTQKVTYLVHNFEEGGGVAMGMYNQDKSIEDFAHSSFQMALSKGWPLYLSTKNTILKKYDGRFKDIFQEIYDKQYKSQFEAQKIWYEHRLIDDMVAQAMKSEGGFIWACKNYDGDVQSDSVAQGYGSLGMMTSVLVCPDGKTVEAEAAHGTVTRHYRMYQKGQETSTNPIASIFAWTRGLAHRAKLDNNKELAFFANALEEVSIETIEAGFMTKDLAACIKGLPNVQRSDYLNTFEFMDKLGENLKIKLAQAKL
Chain of IDH1-R132H recombinant protein (O75874 whole entry R132H): as the sequence (O75874 whole entry R132C) above, with C132H counted along it

C[C@H](Nc1nccc(N2CCCS2(=O)=O)n1)c1cc2cc(Cl)ccc2[nH]c1=O [Compound I-12, (S)-6-Chloro-3-(1-((4-(1,1-dioxidoisothiazolidin-2-yl)pyrimidin-2-yl)amino)ethyl)quinolin-2(1H)-one]
IC50 [1, 5]: 100 to 1000 nM
IC50 [2]: 1000 to 10000 nM
IC50 [3]: 100 to 1000 nM
IC50 [4, 6]: 100 to 1000 nM

CC(Nc1nccc(N(C(C)C)S(C)(=O)=O)n1)c1cc2cc(Cl)ccc2[nH]c1=O (centres unmarked) [Compound I-20]
IC50 [1, 5]: 100 to 1000 nM
IC50 [2]: 100 to 1000 nM
IC50 [3]: 100 to 1000 nM
IC50 [4, 6]: 100 to 1000 nM

COC(=O)Nc1ccnc(N[C@@H](C)c2cc3cc(Cl)ccc3[nH]c2=O)n1 [Compound I-22, (S)-Methyl (2-((1-(6-chloro-2-oxo-1,2-dihydroquinolin-3-yl)ethyl)amino)pyrimidin-4-yl) carbamate]
IC50 [1, 5]: < 100 nM
IC50 [2]: 100 to 1000 nM
IC50 [3]: < 100 nM
IC50 [4, 6]: < 100 nM

CC(C)OC(=O)Nc1ccnc(N[C@@H](C)c2cc3cc(Cl)ccc3[nH]c2=O)n1 [Compound I-23, (S)-Isopropyl (2-((1-(6-chloro-2-oxo-1,2-dihydroquinolin-3-yl)ethyl)amino)pyrimidin-4-yl)carbamate]
IC50 [1, 5]: 100 to 1000 nM
IC50 [3]: 1000 to 10000 nM
IC50 [4, 6]: 100 to 1000 nM

CC(=O)Nc1ccnc(N[C@@H](C)c2cc3cc(Cl)ccc3[nH]c2=O)n1 [Compound I-25, (S)—N-(2-((1-(6-Chloro-2-oxo-1,2-dihydroquinolin-3-yl)ethyl)amino)pyrimidin-4-yl)acetamide]
IC50 [1, 5]: < 100 nM
IC50 [2]: < 100 nM
IC50 [3]: < 100 nM
IC50 [4, 6]: < 100 nM

C[C@H](Nc1nccc(NC(=O)C2CC2)n1)c1cc2cc(Cl)ccc2[nH]c1=O [Compound I-29]
IC50 [1, 5]: 100 to 1000 nM
IC50 [2]: < 100 nM
IC50 [3]: < 100 nM
IC50 [4, 6]: 100 to 1000 nM

CCC(=O)Nc1ccnc(N[C@@H](C)c2cc3cc(Cl)ccc3[nH]c2=O)n1 [Compound I-33]
IC50 [1, 5]: < 100 nM
IC50 [2]: < 100 nM
IC50 [3]: < 100 nM
IC50 [4, 6]: 100 to 1000 nM

COc1nc(N[C@@H](C)c2cc3cc(Cl)ccc3[nH]c2=O)ncc1C#N [Compound I-36, (S)-2-((1-(6-Chloro-2-oxo-1,2-dihydroquinolin-3-yl)ethyl)amino)-4-methoxypyrimidine-5-carbonitrile]
IC50 ([1]; HCT-116, 24 h): < 100 nM
IC50 [2]: 100 to 1000 nM
IC50 [3]: < 100 nM
IC50 ([4]; HCT-116, 24 h): 100 to 1000 nM

C[C@H](Nc1ncc(C#N)c(N)n1)c1cc2cc(Cl)ccc2[nH]c1=O [Compound I-37]
IC50 [1, 5]: 100 to 1000 nM
IC50 [3]: 100 to 1000 nM
IC50 [4, 6]: 1000 to 10000 nM

C[C@H](Nc1ncc(C#N)c(C2CC2)n1)c1cc2cc(Cl)ccc2[nH]c1=O [Compound I-40, (S)-2-((1-(6-Chloro-2-oxo-1,2-dihydroquinolin-3-yl)ethyl)amino)-4-cyclopropylpyrimidine-5-carbonitrile]
IC50 [1, 5]: 1000 to 10000 nM
IC50 [3]: < 100 nM
IC50 [4, 6]: 100 to 1000 nM

CC(C)[C@H]1COC(=O)N1c1ccnc(N[C@@H](C)c2cc3cc(Cl)ccc3[nH]c2=O)n1 [Compound I-42, (S)-3-(2-(((S)-1-(6-Chloro-2-oxo-1,2-dihydroquinolin-3-yl)ethyl)amino)pyrimidin-4-yl)-4-isopropyloxazolidin-2-one]
IC50 [2]: < 100 nM
IC50 [3]: < 100 nM
IC50 [4, 6]: < 100 nM

C[C@H](Nc1nccc(N2CCOC2=O)n1)c1cc2cc(Cl)ccc2[nH]c1=O [Compound I-44, (S)-3-(2-((1-(6-Chloro-2-oxo-1,2-dihydroquinolin-3-yl)ethyl)amino)pyrimidin-4-yl)oxazolidin-2-one]
IC50 [1, 5]: < 100 nM
IC50 [2]: < 100 nM
IC50 [3]: < 100 nM
IC50 [4, 6]: 100 to 1000 nM

O=C1OCCN1c1ccnc(NCc2cc3cc(Cl)ccc3[nH]c2=O)n1 [Compound I-47]
IC50 [1, 5]: 100 to 1000 nM
IC50 [2]: 100 to 1000 nM
IC50 [3]: 100 to 1000 nM
IC50 [4, 6]: 1000 to 10000 nM

Cc1cccn1-c1ccnc(N[C@@H](C)c2cc3cc(Cl)ccc3[nH]c2=O)n1 [Compound I-51, (S)-6-Chloro-3-(1-((4-(2-methyl-1H-pyrrol-1-yl)pyrimidin-2-yl)amino)ethyl) quinolin-2(1H)-one]
IC50 [1, 5]: 100 to 1000 nM
IC50 [2]: 100 to 1000 nM
IC50 [3]: < 100 nM
IC50 [4, 6]: 100 to 1000 nM

C[C@H](Nc1nccc(-n2ccnc2)n1)c1cc2cc(Cl)ccc2[nH]c1=O [Compound I-54]
IC50 [1, 5]: 1000 to 10000 nM
IC50 [2]: 1000 to 10000 nM
IC50 [3]: 100 to 1000 nM
IC50 [4, 6]: 1000 to 10000 nM

C[C@H](Nc1nccc(-n2cnc3c2CCC3)n1)c1cc2cc(Cl)ccc2[nH]c1=O [Compound I-55]
IC50 [1, 5]: 100 to 1000 nM
IC50 [2]: 100 to 1000 nM
IC50 [3]: 100 to 1000 nM
IC50 [4, 6]: 100 to 1000 nM

Cc1oncc1-c1ccnc(N[C@@H](C)c2cc3cc(Cl)ccc3[nH]c2=O)n1 [Compound I-58, (S)-6-Chloro-3-(1-((4-(5-methylisoxazol-4-yl)pyrimidin-2-yl)amino)ethyl)quinolin-2(1H)-one]
IC50 [1, 5]: 1000 to 10000 nM
IC50 [2]: 1000 to 10000 nM
IC50 [3]: < 100 nM
IC50 [4, 6]: 1000 to 10000 nM

Cc1nnnn1-c1ccnc(N[C@@H](C)c2cc3cc(Cl)ccc3[nH]c2=O)n1 [Compound I-59, (S)-6-chloro-3-(1-((4-(5-methyl-1H-tetrazol-1-yl)pyrimidin-2-yl)amino)ethyl)quinolin-2(1H)-one]
IC50 [1, 5]: 100 to 1000 nM
IC50 [2]: 100 to 1000 nM
IC50 [3]: < 100 nM
IC50 [4, 6]: 100 to 1000 nM

Cc1c(-c2ccnc(N[C@@H](C)c3cc4cc(Cl)ccc4[nH]c3=O)n2)cnn1C [Compound I-74]
IC50 [1, 5]: 100 to 1000 nM
IC50 [3]: 100 to 1000 nM
IC50 [4, 6]: 100 to 1000 nM

C[C@H](Nc1nccc(-c2ccnn2C2CCCCO2)n1)c1cc2cc(Cl)ccc2[nH]c1=O (some centres unmarked) [Compound I-79]
IC50 [1, 5]: 1000 to 10000 nM
IC50 [3]: < 100 nM
IC50 [4, 6]: 1000 to 10000 nM

Cc1cscc1-c1ccnc(N[C@@H](C)c2cc3cc(Cl)ccc3[nH]c2=O)n1 [Compound I-80]
IC50 [1, 5]: 100 to 1000 nM
IC50 [3]: < 100 nM
IC50 [4, 6]: 100 to 1000 nM

C[C@H](Nc1nccc(-c2cccn2C)n1)c1cc2cc(Cl)ccc2[nH]c1=O [Compound I-81]
IC50 [1, 5]: 100 to 1000 nM
IC50 [3]: < 100 nM
IC50 [4, 6]: 100 to 1000 nM

C[C@H](Nc1nccc(N2CCN(C)C2=O)n1)c1cc2cc(Cl)ccc2[nH]c1=O [Compound I-124]
IC50 [1, 5]: 100 to 1000 nM
IC50 [3]: 100 to 1000 nM
IC50 [4, 6]: 100 to 1000 nM

COc1cc2[nH]c(=O)c([C@H](C)Nc3nccc(N4CCOC4=O)n3)cc2cc1Cl [Compound I-147]
IC50 [1, 5]: < 100 nM
IC50 [3]: < 100 nM
IC50 [4, 6]: < 100 nM

Cc1nc(N[C@@H](C)c2cc3cc(Cl)c(OCc4ccccn4)cc3[nH]c2=O)ncc1C#N [Compound I-153]
IC50 [2]: < 100 nM
IC50 [3]: < 100 nM
IC50 [4, 6]: < 100 nM

COc1nc(N[C@@H](C)c2nc3cc(Cl)ccc3[nH]c2=O)ncc1C#N [Compound I-156, (S)-2-((1-(7-Chloro-3-oxo-3,4-dihydroquinoxalin-2-yl)ethyl)amino)-4-methoxy pyrimidine-5-carbonitrile]
IC50 ([1]; HCT-116, 24 h): < 100 nM
IC50 [2]: 100 to 1000 nM
IC50 ([4]; HCT-116, 24 h): 100 to 1000 nM

CC(C)(Nc1nccc(N2CCOC2=O)n1)c1cc2cc(Cl)ccc2[nH]c1=O [Compound I-170]
IC50 [1, 5]: 100 to 1000 nM
IC50 [3]: 100 to 1000 nM
IC50 [4, 6]: 1000 to 10000 nM

C[C@H](Nc1nccc(-n2nnnc2C2CC2)n1)c1cc2cc(Cl)ccc2[nH]c1=O [Compound I-183, (S)-6-chloro-3-(1-((4-(5-cyclopropyl-1H-tetrazol-1-yl)pyrimidin-2-yl)amino)ethyl)quinolin-2(1H)-one]
IC50 [2]: < 100 nM
IC50 [3]: < 100 nM
IC50 [4, 6]: 100 to 1000 nM
